Laboratory results as given in ChEMBL document CHEMBL1135392, “Rational determination of transfer free energies of small drugs across the water-oil interface” (J Med Chem, 2002).

Experiments:
Conditions in all cases: octanol/water
[1] = Partition coefficient (logP)
[2] = Partition coefficient (logP) (dodecane)
[3] = Partition coefficient across water-dodecane interface by statistical simulation

SMILES	logP [1]	logP [2]	logP [3]
Oc1cccc(Cl)c1		-0.34	
CN1C(=O)Cc2ccccc21	0.63	-0.9	
Brc1cnc2ccccc2c1	3.11	2.59	
OC[C@H]1O[C@H](O)[C@H](O)[C@@H](O)[C@@H]1O	-3.02	< -3	
CC(=O)Nc1ccccc1 [ACETANILIDE]	1.13	-1.76	
c1ccc2nc3ccccc3cc2c1 [ACRIDINE]	2.98	2.32	
Cc1cc(=O)n(-c2ccccc2)n1C [ANTIPYRINE]		-2.52	-2.5
NC(=O)c1ccccc1 [BENZAMIDE]	0.67	-2.67	
O=[N+]([O-])c1ccccc1 [NITROBENZENE]	1.84	1.43	
Oc1ccccc1 [PHENOL]	1.5	-1.04	
c1ccc2nccnc2c1 [QUINOXALINE]	1.35	0.51	

Second part, led by results:

logP [1]	logP [2]	SMILES	logP [3]
0.33	-1.56	CC(=O)c1ccc(S(C)(=O)=O)cc1	
1.56	0.94	CC(=O)c1ccccc1 [ACETOPHENONE]	
	2.06	COc1ccccc1 [ANISOLE]	
0.32	-2.72	NC(=O)c1ccccc1N [ANTHRANILAMIDE]	
0.33	-3.14	NS(=O)(=O)c1ccccc1 [BENZENESULFONAMIDE]	
	-0.77	OCc1ccccc1 [BENZYL ALCOHOL]	
1.07	-1.95	O=C1Cc2ccccc2N1 [OXINDOLE]	
